Measurements as given in article PMC10534724, “Interaction of ALK Inhibitors with Polyspecific Organic Cation Transporters and the Impact of Substrate-Dependent Inhibition on the Prediction of Drug–Drug Interactions” (Pharmaceutics, 2023).
Read-outs that look alike come from different tables or passages of the source.

What was measured:
[1] = biological target: T1, hOCT1 (Homo sapiens, UniProt O15245); test: Inhibition of hOCT1-mediated substrate uptake in transfected HEK293 cells; assay type: in vitro ADME; details: for In vivo DDI study recommendation, hOCT1: FDA-recommended criteria
T1 construct: expressed in transfected cells
T1 sequence (O15245 1-554): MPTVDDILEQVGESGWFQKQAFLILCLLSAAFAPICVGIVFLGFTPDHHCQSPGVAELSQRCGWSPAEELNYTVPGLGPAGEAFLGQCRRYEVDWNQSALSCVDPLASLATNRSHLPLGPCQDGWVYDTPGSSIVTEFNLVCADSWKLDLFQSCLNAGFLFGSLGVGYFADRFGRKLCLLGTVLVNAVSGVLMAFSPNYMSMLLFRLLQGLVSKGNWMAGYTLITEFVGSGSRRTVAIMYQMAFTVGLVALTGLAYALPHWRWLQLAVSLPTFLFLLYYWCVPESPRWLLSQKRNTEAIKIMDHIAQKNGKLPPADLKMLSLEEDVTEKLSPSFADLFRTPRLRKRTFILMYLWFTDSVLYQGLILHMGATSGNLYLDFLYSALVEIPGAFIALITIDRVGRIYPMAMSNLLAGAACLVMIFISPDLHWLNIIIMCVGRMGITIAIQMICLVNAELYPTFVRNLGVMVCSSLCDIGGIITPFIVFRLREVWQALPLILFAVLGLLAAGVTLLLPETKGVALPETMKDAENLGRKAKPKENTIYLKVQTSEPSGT

[2] = biological target: T2, hOCT3 (Homo sapiens, UniProt O75751); test: Inhibition of hOCT3-mediated substrate uptake in transfected HEK293 cells; assay type: in vitro ADME; details: for In vivo DDI study recommendation, hOCT3: FDA-recommended criteria
T2 construct: expressed in transfected cells
T2 sequence (O75751 1-556): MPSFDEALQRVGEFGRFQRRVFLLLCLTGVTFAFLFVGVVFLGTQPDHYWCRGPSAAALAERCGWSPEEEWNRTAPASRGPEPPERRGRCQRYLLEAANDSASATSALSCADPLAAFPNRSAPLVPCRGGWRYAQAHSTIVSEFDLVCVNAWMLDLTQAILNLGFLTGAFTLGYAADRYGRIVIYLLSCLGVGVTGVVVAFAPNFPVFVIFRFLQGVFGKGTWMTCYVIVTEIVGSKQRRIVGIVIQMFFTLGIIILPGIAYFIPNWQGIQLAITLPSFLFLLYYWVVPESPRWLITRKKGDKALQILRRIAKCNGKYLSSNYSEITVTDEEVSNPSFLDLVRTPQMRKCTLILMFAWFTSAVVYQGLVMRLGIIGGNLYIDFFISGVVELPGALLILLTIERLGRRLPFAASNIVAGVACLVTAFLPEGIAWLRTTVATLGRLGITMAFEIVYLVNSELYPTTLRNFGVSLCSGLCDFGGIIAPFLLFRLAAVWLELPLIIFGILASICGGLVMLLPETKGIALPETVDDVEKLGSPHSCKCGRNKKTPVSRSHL

[3] = biological target: T3, hMATE1 (Homo sapiens, UniProt Q96FL8); test: Inhibition of hMATE1-mediated substrate uptake in transfected HEK293 cells (pH 8.0); assay type: in vitro ADME; details: FDA-recommended criteria
T3 construct: expressed in transfected cells
T3 sequence (Q96FL8 1-570): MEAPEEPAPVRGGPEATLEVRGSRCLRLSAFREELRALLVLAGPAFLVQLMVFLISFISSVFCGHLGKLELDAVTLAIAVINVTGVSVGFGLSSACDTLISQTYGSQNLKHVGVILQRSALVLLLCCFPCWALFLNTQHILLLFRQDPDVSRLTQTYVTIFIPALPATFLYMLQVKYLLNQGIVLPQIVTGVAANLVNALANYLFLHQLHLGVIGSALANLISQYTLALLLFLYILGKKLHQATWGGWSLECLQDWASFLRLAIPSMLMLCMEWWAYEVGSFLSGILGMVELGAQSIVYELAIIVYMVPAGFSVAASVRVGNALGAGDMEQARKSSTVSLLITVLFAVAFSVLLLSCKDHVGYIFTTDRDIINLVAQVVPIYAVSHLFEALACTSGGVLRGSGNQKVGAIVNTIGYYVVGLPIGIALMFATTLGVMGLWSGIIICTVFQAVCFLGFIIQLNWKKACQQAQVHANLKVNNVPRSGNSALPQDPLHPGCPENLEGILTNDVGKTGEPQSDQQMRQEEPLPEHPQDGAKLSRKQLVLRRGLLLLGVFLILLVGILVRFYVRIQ

[4] = biological target: T4, hMATE2-K (Homo sapiens, UniProt Q86VL8); test: Inhibition of hMATE2-K-mediated substrate uptake in transfected HEK293 cells (pH 8.0); assay type: in vitro ADME; details: for In vivo DDI study recommendation, hMATE2-K: FDA-recommended criteria
T4 construct: expressed in transfected cells
T4 sequence (Q86VL8 1-566 isoform Q86VL8-3): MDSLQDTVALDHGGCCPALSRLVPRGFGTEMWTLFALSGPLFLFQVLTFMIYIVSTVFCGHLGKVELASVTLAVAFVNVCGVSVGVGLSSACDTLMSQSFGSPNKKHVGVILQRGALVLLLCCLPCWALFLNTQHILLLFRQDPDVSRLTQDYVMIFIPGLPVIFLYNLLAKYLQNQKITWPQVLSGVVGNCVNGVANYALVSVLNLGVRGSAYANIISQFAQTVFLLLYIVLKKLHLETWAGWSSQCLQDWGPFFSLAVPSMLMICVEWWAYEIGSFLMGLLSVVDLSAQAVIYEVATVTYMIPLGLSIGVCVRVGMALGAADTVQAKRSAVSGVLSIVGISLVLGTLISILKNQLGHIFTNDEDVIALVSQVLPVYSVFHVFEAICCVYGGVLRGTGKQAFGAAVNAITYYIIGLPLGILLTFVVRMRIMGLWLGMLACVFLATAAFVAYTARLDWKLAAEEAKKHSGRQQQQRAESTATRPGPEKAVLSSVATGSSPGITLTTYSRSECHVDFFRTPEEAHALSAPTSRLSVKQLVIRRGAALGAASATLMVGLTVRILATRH

[5] = biological target: T1, hOCT1; set-up: method as in PMID 32487736; details: substrate mIBG; HEK293; read-out: IC50, hOCT1-mediated mIBG uptake; cited from earlier work
[6] = biological target: T5, hOCT2 (Homo sapiens, UniProt O15244); test: Inhibition of hOCT2-mediated substrate uptake in transfected HEK293 cells; assay type: in vitro ADME; set-up: expressed in transfected cells; details: for In vivo DDI study recommendation, hOCT2: FDA-recommended criteria
T5 sequence (O15244 1-555): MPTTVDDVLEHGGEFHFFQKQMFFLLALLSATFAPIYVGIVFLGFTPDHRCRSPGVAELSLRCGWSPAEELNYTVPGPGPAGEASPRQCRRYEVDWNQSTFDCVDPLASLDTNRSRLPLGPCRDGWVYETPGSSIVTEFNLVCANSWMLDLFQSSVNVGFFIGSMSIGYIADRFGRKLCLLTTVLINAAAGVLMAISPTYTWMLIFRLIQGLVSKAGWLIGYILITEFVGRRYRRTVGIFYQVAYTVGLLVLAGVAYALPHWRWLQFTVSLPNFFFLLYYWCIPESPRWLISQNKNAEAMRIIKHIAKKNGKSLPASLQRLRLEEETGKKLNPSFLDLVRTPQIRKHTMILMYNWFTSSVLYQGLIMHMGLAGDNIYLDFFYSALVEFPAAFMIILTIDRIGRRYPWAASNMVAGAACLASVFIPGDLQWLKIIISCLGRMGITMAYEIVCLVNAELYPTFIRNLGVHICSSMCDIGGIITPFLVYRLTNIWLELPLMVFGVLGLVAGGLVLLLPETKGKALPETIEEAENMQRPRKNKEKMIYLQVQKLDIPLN

- substrate dependency, hOCT1: more potent with metformin than with MPP+ ([1]; IC50 ratio MPP+/metformin): ~21 fold
- substrate dependency, hOCT1: more potent with metformin than with mIBG ([1]; IC50 ratio mIBG/metformin): approximately 8 fold
- IC50 ([1]; substrate 8.9 µM [14C]metformin, HEK293, 2 min, 37 °C, mean ± SD, read-out: IC50, hOCT1-mediated metformin uptake): 4.98 ± 0.15 µM
- In vivo DDI study recommendation, hOCT1 ([1]; substrate MPP+): No
- In vivo DDI study recommendation, hOCT1 ([1]; substrate mIBG): No
- In vivo DDI study recommendation, hOCT1 ([1]; substrate metformin): No
- substrate dependency, hOCT3: differences in IC50 values across substrates ([2]; metformin, mIBG, MPP+): ≤ 5 fold
- In vivo DDI study recommendation, hOCT3 ([2]; substrate MPP+): No
- In vivo DDI study recommendation, hOCT3 ([2]; substrate mIBG): No
- In vivo DDI study recommendation, hOCT3 ([2]; substrate metformin): No
- In vivo DDI study recommendation, hMATE1 ([3]; substrate MPP+): No
- In vivo DDI study recommendation, hMATE1 ([3]; substrate mIBG): No
- In vivo DDI study recommendation, hMATE1 ([3]; substrate metformin): No
- substrate dependency, hMATE2-K: more potent with metformin than with MPP+ ([4]; IC50 ratio MPP+/metformin): ~12 fold
- substrate dependency, hMATE2-K: more potent with metformin than with mIBG ([4]; IC50 ratio mIBG/metformin): approximately 5 fold
- In vivo DDI study recommendation, hMATE2-K ([4]; substrate MPP+): No
- In vivo DDI study recommendation, hMATE2-K ([4]; substrate mIBG): No
- In vivo DDI study recommendation, hMATE2-K ([4]; substrate metformin): No
- substrate dependency, hOCT2: more potent with metformin than with MPP+ ([6]; IC50 ratio MPP+/metformin): ~16 fold
- substrate dependency, hOCT2: more potent with metformin than with mIBG ([6]; IC50 ratio mIBG/metformin): approximately 2 fold
- In vivo DDI study recommendation, hOCT2 ([6]; substrate MPP+): No
- In vivo DDI study recommendation, hOCT2 ([6]; substrate mIBG): No
- In vivo DDI study recommendation, hOCT2 ([6]; substrate metformin): No
SMILES: C[C@@H](Oc1cc(-c2cnn(C3CCNCC3)c2)cnc1N)c1c(Cl)ccc(F)c1Cl [Crizotinib]
- IC50 [5]: 40.3 ± 5.5 µM
